In publication PMC12652113, “Fluorescent Albumin-Binding N-Propylbenzene Indolenine-Based Squaraines as Potential Candidates for Prostate Cancer Photodynamic Therapy Photosensitizers” (International Journal of Molecular Sciences, 2025):
“Also recorded” adds a separate entry of the source. Read-outs that look alike come from different tables or passages of the source.

Legend:
[1] = Singlet oxygen generation, 1,3-diphenylisobenzofuran (DPBF) assay; format: physicochemical; details: DMSO; LED irradiation; relative to benzoselenazole squaraine reference
Method: The ability of the squaraine dyes to generate singlet oxygen was assessed using the 1,3-diphenylisobenzofuran (DPBF) assay. In this method, squaraine solutions were incubated with DPBF and irradiated for different time intervals, followed by the monitoring of absorbance at 410 nm. A progressive decrease in DPBF absorbance was observed upon irradiation for all synthesized compounds, confirming their ability to produce this reactive oxygen species. However, it should be emphasized that the reference squaraine dye induced a sharp reduction in DPBF absorbance within a short irradiation period, with the decay being limited only by its intrinsic photoinstability.
Singlet oxygen production was assessed by monitoring the bleaching of 1,3-diphenylisobenzofuran (DPBF) at 410 nm. Fresh solutions of squaraine dyes (20 µM) and DPBF (0.1 mM) were introduced into 96-well plates, and decreases in absorbance were recorded before and after irradiation at defined time intervals. Quantum yields of singlet oxygen generation (ΦΔ) were determined by comparing the slopes of DPBF degradation for the squaraine dyes [S(dye)] with those of a benzoselenazole squaraine reference dye [S(ref), ΦΔ = 0.10], according to established linear regression procedures (Equation (1)). In parallel, photodegradation of the squaraines was monitored by following changes in their absorbance over time, with normalization applied to enable direct comparison across samples.(1) ΦΔdye=ΦΔref × Sdye/Sref

[2] = Aggregation behavior (Vis absorption in phosphate buffer, with or without Triton X-100); format: physicochemical; details: phosphate buffer vs DMSO
Method: Squaraine dyes were dissolved in dimethyl sulfoxide, whereas zinc phthalocyanine required dimethylformamide as a solvent. All stock solutions were prepared at 0.67 mM concentration and stored in the dark at 4 °C until further use. For spectroscopic characterization, 1.0 µM stock solutions of the squaraine dyes in dimethyl sulfoxide were serially diluted into a series of solvents (chloroform, dimethyl sulfoxide, methanol, and phosphate buffer) to obtain at least five defined concentrations. The absorption spectra of these dilutions were recorded and used to calculate molar extinction coefficients according to the Beer–Lambert law. Additional working solutions at a 1.0 µM concentration were prepared in dimethyl sulfoxide and buffer, and 1.0% Triton X-100 was added where required to investigate dye aggregation.

[3] = target: human serum albumin (HSA) (Homo sapiens, UniProt P02768); test: Fluorometric squaraine-albumin binding titration; details: for detection limit (DL): HSA detection, DL=3σ/S; for quantification limit (QL): HSA quantification, QL=10σ/S; for fluorescence intensity without protein (F0): dye 2.0 µM in phosphate buffer, no HSA; for fluorescence intensity at the highest protein concentration (F): dye 2.0 µM, highest HSA concentration; for Stokes shift (ΔS) / absorption maximum (λabs) / emission maximum (λem) / fluorescence quantum yield (ΦF): phosphate buffer (pH 7.4), HSA presence; for incubation time for maximum interaction with HSA / incubation time to reach maximum fluorescence with HSA: read at 0 min, 3 h, 24 h; for F/F0: ratio of fluorescence with HSA to fluorescence without HSA; for incubation time to reach maximum fluorescence with HSA: room temperature, protected from light
human serum albumin (HSA), sequence (P02768 25-609): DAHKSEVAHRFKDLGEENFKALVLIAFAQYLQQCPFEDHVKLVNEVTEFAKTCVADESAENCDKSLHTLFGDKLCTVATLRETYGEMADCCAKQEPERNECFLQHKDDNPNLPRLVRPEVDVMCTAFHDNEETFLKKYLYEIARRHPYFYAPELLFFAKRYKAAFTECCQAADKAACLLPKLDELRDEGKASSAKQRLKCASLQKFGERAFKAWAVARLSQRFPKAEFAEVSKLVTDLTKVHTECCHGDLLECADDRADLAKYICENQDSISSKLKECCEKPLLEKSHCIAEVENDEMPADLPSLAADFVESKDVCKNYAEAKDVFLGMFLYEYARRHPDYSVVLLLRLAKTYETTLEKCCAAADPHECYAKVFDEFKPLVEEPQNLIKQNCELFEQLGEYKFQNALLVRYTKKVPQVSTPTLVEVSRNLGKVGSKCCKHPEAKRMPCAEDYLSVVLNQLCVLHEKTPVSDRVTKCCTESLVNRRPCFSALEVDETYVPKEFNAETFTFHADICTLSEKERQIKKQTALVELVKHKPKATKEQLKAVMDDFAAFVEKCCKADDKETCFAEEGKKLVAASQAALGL
Method: For fluorometric experiments, the squaraine stock solutions were initially prepared in dimethylformamide and subsequently diluted with phosphate buffer for the protein–dye interaction analysis. Human serum albumin stock solution was then added to these mixtures, while keeping the dye concentration fixed at 2.0 µM and varying the protein concentration from 0 to 3.0 µM (0.0 to 3.0 µM for squaraines 5, 9, and 11, and from 0 to 6.0 µM for squaraine 13). Fluorescence intensities of the resulting solutions were recorded after 0, 3, and 24 h of incubation with the protein. The excitation wavelengths and excitation/emission slit widths used for the measurements were optimized for each dye, as listed in Table 6.
The squaraine-albumin binding constants was calculated using the Benesi–Hildebrand equation (Equation (3)) based on the data obtained from the fluorescence experiments:(3) 1/Fx−F0=1/F∞−F0+1/Kb(F∞−F0)1/[HSA] where F0 is the fluorescence intensity of the squaraine in albumin-free buffer, Fx is the fluorescence observed after protein incubation at a specific concentration, F∞ is the fluorescence at the point of complete interaction, Kb is the binding constant, and [HSA] is the albumin concentration.
Quantification and detection limits (QL and DL, respectively) were determined from a calibration curve of maximum fluorescence intensity against protein concentration. The slope of this curve was then used to calculate the method’s sensitivity using Equations (4) and (5):(4) QL=10σ/S (5) DL=3σ/S where σ refers to the blank standard deviation and S (sensitivity) to the linear regression slope between the fluorescence intensity and albumin concentration.

[4] = tested on: normal human dermal fibroblasts (NHDF); test: MTT dark and light-induced cytotoxicity in NHDF; format: cell-based; details: for IC50: Homo sapiens, 24 h incubation; for IC50 / Photodynamic ratio (PTR): NHDF; for Photodynamic ratio (PTR): IC50 dark/IC50 irradiated
Method: For potential applicability as photosensitizers in PDT, these candidates are expected to display cytotoxic effects only after photoactivation, namely, and preferably restricted to target tissue cells, without inducing damage to healthy counterparts. To evaluate this, prostate adenocarcinoma PC-3 cells and non-tumoral NHDF fibroblasts were incubated with increasing concentrations of the squaraine dyes for 24 h. Subsequently, the cells were irradiated using an LED system centered at 663 nm, a wavelength close to the absorption maximum of the monomeric dye forms. Twenty-four hours post-irradiation, cellular metabolic activity was assessed by the MTT assay.
The in cell photocytotoxicity of the squaraine dyes was assessed using the MTT assay. When cells reached 90–95% confluence, they were trypsinized using a trypsin-EDTA solution (0.125 g/L trypsin, 0.02 g/L EDTA), counted via trypan-blue exclusion in a Neubauer chamber, and diluted to 2 × 10^4 cells/mL. A 100 µL aliquot of this suspension was seeded into each well of 96-well plates and incubated for 48 h to allow for cell attachment and resumption of proliferation.
After this period, the medium was removed, and cells were treated with various concentrations of the squaraine dyes (0.01, 0.1, 1, 2.5, 5, and 10 µM) in the appropriate culture medium. […] Negative controls consisted of cells exposed only to culture medium. All experiments were performed in quadruplicate and independently repeated.
After 24 h of exposure to the dyes, the cells were subjected to two different irradiation conditions: the first group was not irradiated and was protected from ambient light for 21 min, and the second group was irradiated for 7 min.
Twenty-four hours post-irradiation, the culture medium was removed, cells were washed with 100 µL PBS, and 100 µL of MTT solution (5 mg/mL in serum- and antibiotic-free medium) was added per well. Cells were incubated for 4 h at 37 °C, after which the supernatant was discarded, and the formazan crystals were solubilized in dimethyl sulfoxide. Absorbance was measured at 570 nm using a Bio-Rad xMark microplate reader.
Cell viability was expressed as the percentage of absorbance in treated samples relative to the untreated negative control. Data were statistically analyzed by ordinary two-way ANOVA followed by the Šidák multiple comparisons test, comparing irradiated and non-irradiated conditions at the same concentration, with differences considered statistically significant at a p-value < 0.05. Half-maximal inhibitory concentration values reported in this work were obtained by fitting the data to a sigmoidal model with a 95% confidence interval. All assays were performed in quadruplicate and replicated independently at least twice. Phototoxicity and tumor selectivity ratios were quantified according to Equations (6) and (7):(6) PTR = IC50 dark condition/IC50 irradiated condition (7) TSR = IC50 for NHDF cells under irradiated condition/IC50 for cancer cell line under irradiated condition
Irradiation was performed using a light-emitting diode array centered at 663 ± 8 nm to match the absorption maximum of the dyes. The LED (Roithner; 8.3 mW radiant flux) was integrated into flat-bottom 96-well plates and powered by a regulated current source. The irradiance was 15.8 mW/cm^2, and the total energy delivered per well was 3.49 J after 7 min, ensuring precise light dosing for all experiments.

[5] = slope of fluorescence intensity vs HSA concentration
[6] = light or radiation study, Light, 7 min LED 663 nm, MTT 24 h post-irradiation
[7] = phosphate buffer, bound vs free

SMILES | singlet oxygen quantum yield (ΦΔ) [1] | aggregation behavior [2] | detection limit (DL) [3] [nM] | quantification limit (QL) [3] [nM] | fluorescence intensity without protein (F0) [3] [a.u.] | fluorescence intensity at the highest protein concentration (F) [3] [a.u.] | Stokes shift (ΔS) [3] [nm] | absorption maximum (λabs) [3] [nm] | emission maximum (λem) [3] [nm] | fluorescence quantum yield (ΦF) [3] | incubation time for maximum interaction with HSA [3] | sensitivity (S) [3, 5] | IC50 [4, 6] [µM] | IC50 ([4]; Dark, MTT 24 h later) [µM] | Photodynamic ratio (PTR) [4] | F/F0 [3] | incubation time to reach maximum fluorescence with HSA [3] [h] | sensitivity (S) [3] [nM⁻¹] | other results
CNC1=C(C=C2N(CCCc3ccccc3)c3ccccc3C2(C)C)C(=O)C1=CC1=[N+](CCCc2ccccc2)c2ccccc2C1(C)C.[I-] [Dye 11, 2-{3-[3,3-Dimethyl-1-(3-phenylpropyl)indolin-2-ylidenemethyl]-2-(methylamino)-4-oxocyclobut-2-en-1-ylidenemethyl}-3,3-dimethyl-1-(3-phenylpropyl)-indol-1-ium Iodide] | <0.01 | coexistence of H- and J-type aggregates; also recorded: lowest tendency to aggregate | 420 | 1401 | 1.00 | 360.94 | 10 | 652 | 662 | 0.04 | immediately upon addition to the protein solution | 119 µM | 3.24 | 6.57 | 2.0 |  |  |  | 
CC1(C)C(=CC2=C(NCc3ccc4ccc5cccc6ccc3c4c56)C(=CC3=[N+](CCCc4ccccc4)c4ccccc4C3(C)C)C2=O)N(CCCc2ccccc2)c2ccccc21.[I-] [Dye 14, 2-({3-[3,3-dimethyl-1-(3-phenylpropyl)indolin-2-ylidenemethyl]-4-oxo-2-[(pyren-1-ylmethyl)amino]cyclobut-2-en-1-ylidene}methyl)-3,3-dimethyl-1-(3-phenylpropyl)-indol-1-ium Iodide] | <0.01 | predominantly form J-aggregates | 361 | 1203 | 4.12 | 115.89 | 4 | 663 | 667 | 0.01 |  | 39 µM | > 10 | > 10 |  | 28.13 | 24 |  | 
CC1(C)C(=CC2=C([O-])C(=CC3=[N+](CCCc4ccccc4)c4ccccc4C3(C)C)C2=O)N(CCCc2ccccc2)c2ccccc21 [Dye 5, 4-[3,3-Dimethyl-1-(3-phenylpropyl)-indol-1-ium-2-ylmethylene]-2-[3,3-dimethyl-1-(3-phenylpropyl)indolin-2-ylidenemethyl]-3-oxocyclobut-1-en-1-olate] | <0.01 | coexistence of H- and J-type aggregates | 266 | 886 | 11.46 | 680.15 | 45 | 604 | 649 | 0.20 |  | 209000 nM⁻¹ | 7.41 | > 10 | >1.4 | 59.35 | 24 | 209000 | blue shift in maximum emission wavelength upon HSA binding [3, 7]: 47 nm; reduction in Stokes shift upon HSA binding [3, 7]: 50%; reduction in viability ([4]; normal fibroblasts, irradiated, up to 2.5 μM): ≤ 30%
CC1(C)C(=CC2=C(N)C(=CC3=[N+](CCCc4ccccc4)c4ccccc4C3(C)C)C2=O)N(CCCc2ccccc2)c2ccccc21.[I-] [Dye 9, 2-{2-Amino-3-[3,3-dimethyl-1-(3-phenylpropyl)indolin-2-ylidenemethyl]-4-oxocyclobut-2-en-1-ylidenemethyl}-3,3-dimethyl-1-(3-phenylpropyl)-indol-1-ium Iodide] | <0.01 | coexistence of H- and J-type aggregates | 324 | 1079 | 9.30 | 917.53 | 8 | 651 | 659 | 0.07 | immediately upon addition to the protein solution | 318 µM | 3.79 | 6.8 | 1.8 | 98.66 |  | 318000 | 
